Legend:
[1] = biological target: T1, SCD1 (Homo sapiens, UniProt O00767); assay: Immunoprecipitation of SW208108-bound protein with anti-SCD1; format: binding; set-up: The fluorescent bands confirm that p30 and p37 represent isoforms of SCD1; endogenous in cells; host or cells: H2122 cells
T1 sequence (O00767 1-359): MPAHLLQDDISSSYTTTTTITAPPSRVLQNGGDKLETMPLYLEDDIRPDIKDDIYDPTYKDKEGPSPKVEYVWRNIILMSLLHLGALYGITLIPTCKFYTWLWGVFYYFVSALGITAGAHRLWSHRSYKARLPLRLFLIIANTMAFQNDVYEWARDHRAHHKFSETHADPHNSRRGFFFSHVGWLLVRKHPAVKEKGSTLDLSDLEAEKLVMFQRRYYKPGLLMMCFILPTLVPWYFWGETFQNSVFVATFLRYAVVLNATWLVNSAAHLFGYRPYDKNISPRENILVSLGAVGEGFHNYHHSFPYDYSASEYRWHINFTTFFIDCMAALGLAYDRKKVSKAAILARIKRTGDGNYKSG
Description: FIG. 7L. Antibodies against SCD1 (Pierce) immunoprecipitate SW208108-bound protein. Samples were prepared as in FIG. 7A, and immunoprecipitated with either anti-SCD1 or IgG. The fluorescent bands confirm that p30 and p37 represent isoforms of SCD1.
SCD1 is the functional target of the oxalamides, benzothiazoles, chromones, and related derivatives. Covalent binding of SW208108 to SCD1 was confirmed by incubating cells in the presence of SW208108, lysing them, immunoprecipitating with antibodies to SCD1, and then clicking drug-bound proteins to a dye.

[2] = biological target: T1, SCD1; assay: Cross-linking of SW208108 in 12 NSCLC cell lines; format: cell-based
Description: FIGS. 9A-9D. Selective toxins selectively cross-link to SCD1 in sensitive cells and are selectively metabolized in sensitive cells. FIG. 9A. 12 NSCLC cell lines were incubated with SW208108 and processed as described in FIG. 7. […] FIG. 9B. […] FIG. 9C. […] Demethylation is the anticipated mode of metabolism. FIG. 9D. A representative benzothiazole is demethylated by sensitive cell lines. […] Values in FIGS. 9C and 9D were obtained by tandem HPLC/MS/MS.
In this context, 12 different NSCLC cell lines were treated with SW208108, lysed and clicked to a dye as previously described. […] To understand how SW208108 could selectively cross-link to SCD1 within some cell lines that expressed the enzyme but not other cell lines that expressed the same enzyme, we investigated the stability of a representative oxalamide in the presence of a sensitive and insensitive cell line. […] Similarly, a representative benzothiazole was metabolized by H2122 cells through, at least in part, the loss of the O-methyl group (FIG. 9D).

[3] = biological target: T1, SCD1; assay: Covalent adduct formation in 293t cells transfected with SCD1 or CYP4F11; format: cell-based; set-up: expressed in transfected cells; host or cells: 293t cells
From the text: (§1) FIGS. 10A-10F. Sensitive cells express high levels of CYP4 family members. FIG. 10A. relative expression levels of mRNA for a panel of cytochrome P450 enzymes from the cancer cell line encyclopedia (CCLE, http://www.broadinstitute.org/ccle) showing CYP4F11 in particular is highly expressed in 4 NSCLC lines that are sensitive to SCD1 inhibition. FIG. 10B. Western blot showing that CYP4F11 protein is expressed in all sensitive cell lines but not in the majority of insensitive cell lines. FIG. 10C. […] FIG. 10D. Cells were incubated with either a methoxy-containing oxalamide, which represents the pro-drug form, or the hydroxy containing oxalamide, which represents the active form of the drug. […] FIG. 10E. 293t cells were transfected with mammalian expression plasmids containing SCD1 or CYP4F11 as indicated. Cells were treated with either SW208108 or its demethylated congener, SW211666, and conjugated with a fluorescent dye as described in FIG. 7. Cells containing CYP4F11 form covalent adducts with both the pro-drug (methoxy) and drug form (demethylated, i.e. OH). […] FIG. 10F. Shown are the results of a tritium release assay in which tritiated water is produced from tritiated stearoyl CoA by the action of SCD1. […] By contrast, SW211666 but not SW208108 inhibits SCD1 in mouse preputial gland, which lacks CYP4F11 (bottom). […]

[4] = biological target: T2, SCD1 (Mus musculus, UniProt P13516); assay: Tritium release assay of SCD1 activity, mouse liver; format: biochemical; conditions: liver expresses CYP4F11
T2 construct: tissue derived from mouse liver and preputial gland was independently exposed; from tissue; host or cells: mouse liver
From the text: as §1

T2 sequence (P13516 whole entry): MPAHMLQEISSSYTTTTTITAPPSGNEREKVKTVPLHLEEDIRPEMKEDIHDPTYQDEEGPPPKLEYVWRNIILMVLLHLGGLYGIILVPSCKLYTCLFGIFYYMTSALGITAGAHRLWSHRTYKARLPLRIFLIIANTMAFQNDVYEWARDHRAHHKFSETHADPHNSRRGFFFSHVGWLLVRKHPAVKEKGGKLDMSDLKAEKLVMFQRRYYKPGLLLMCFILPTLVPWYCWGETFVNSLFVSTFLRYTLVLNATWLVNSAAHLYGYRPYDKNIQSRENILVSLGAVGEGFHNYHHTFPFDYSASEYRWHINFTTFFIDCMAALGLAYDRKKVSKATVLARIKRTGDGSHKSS

C#CCOc1ccc(C(=O)c2ccc(NC(=O)C(=O)NCCc3ccc(OC)cc3)cc2)cc1 [SW208108]
covalent binding to SCD1 (immunoprecipitation) [1]: confirmed | cross linked SCD1 bands in 12 NSCLC cell lines [2]: Prominent cross linked bands | covalent modification of SCD1 in 293t cells in the absence of CYP4F11 ([3]; SCD1 expressed alone): unable to covalently modify SCD1 | covalent modification of SCD1 in 293t cells expressing SCD1 and CYP4F11 ([3]; with or without HET0016): covalently modify SCD1 | inhibition of SCD1 activity in mouse liver tissue [4]: only inhibited SCD1 activity in the liver
